Experimental data published in patent publication US9855232B2, “Crystalline forms of bimatoprost acid, methods for preparation, and methods for use thereof” (Allergan, Inc., priority 2012, dated 2018).
Values after ≈ are worked out from the molar mass of the structure shown. Read-outs that look alike come from different tables or passages of the source. Each block holds one molecule with its values, some of them ahead of it.

Tests used:
Assay type in all cases: physicochemical
[1] = Solubility in nitromethane
Method: (§1) Anisole was selected as solvent based on good stability and measurable solubility of bimatoprost acid polymorphs in the studied temperature range. […] Another solvent, nitromethane, was selected to detect the solubility of bimatoprost acid at 9 and 22° C. […] At 22° C., both forms converted to oils where no comparison between the two polymorphs could be made.

[2] = Isothermal competitive co-slurries of polymorph I and II; conditions: 1:1 ratio co-slurry at 5, 20 and 35° C.
Method: The differences in free energy between the polymorphs were measured as a function of temperature in order to determine the transition temperature and relative stability versus temperature.

[3] = Vapor sorption analysis (VSA); conditions: for relative humidity at which the monohydrate (hydrated form) forms: first adsorption
Method: The crystalline monohydrate form (designated polymorph III) was discovered upon vapor sorption analysis (VSA) of both polymorph I and polymorph II. […] The conversion of polymorph I to the monohydrate form was confirmed by XRPD. […] The 2nd adsorption cycle of polymorph II reconfirms formation of the monohydrate again at RH˜75% (FIG. 7). […] The thermal analysis (MDSC) of the monohydrate form indicates a melting endotherm onset (Tonset) at 53.9° C. and a fusion enthalpy (ΔHf) of 72.4 J/g for the monohydrate form (see FIG. 8).

[4] = Thermodynamic equilibrium solubility in anisole
Method: as §1

- solubility ([1]; 9 °C, organic solvent or mixture, thermodynamic from solid, read-out: solubility): 4100 ± 300 µg/mL (≈ 10.6 mM)
- relative humidity at which the monohydrate (hydrated form) forms ([3]; 25° C.): ~75 % RH
- water absorbed ([3]; RH~75%, 25° C.): 4.42 w/w %
SMILES: O=C(O)CCCC=CCC1C(O)CC(O)C1C=CC(O)CCc1ccccc1 (centres unmarked) [polymorph I, 7-[3,5-Dihydroxy-2-(3-hydroxy-5-phenyl-pent-1-enyl)-cyclopentyl]-hept-5-enoic acid]
- polymorph conversion / relative stability [2]: converts to polymorph II at all three temperatures

SMILES: O=C(O)CCCC=CCC1C(O)CC(O)C1C=CC(O)CCc1ccccc1 (centres unmarked) [polymorph III, 7-[3,5-Dihydroxy-2-(3-hydroxy-5-phenyl-pent-1-enyl)-cyclopentyl]-hept-5-enoic acid]
- conversion upon drying ([3]; drying in vapor sorption analyzer at 25° C.): converted beck to the initial polymorph 1

- solubility ([1]; 9° C.): 3300 ± 200 µg/mL (≈ 8.49 mM)
- thermodynamic equilibrium solubility (comparison of polymorphs) ([4]; 6° C. and 25° C.): lower solubility
- relative humidity at which the monohydrate forms ([3]; 2nd adsorption cycle): ~75%
- relative humidity at which the monohydrate (hydrated form) forms ([3]; 25° C.): above 85 % RH
SMILES: O=C(O)CCCC=CCC1C(O)CC(O)C1C=CC(O)CCc1ccccc1 (centres unmarked) [polymorph II, 7-[3,5-Dihydroxy-2-(3-hydroxy-5-phenyl-pent-1-enyl)-cyclopentyl]-hept-5-enoic acid]
- polymorph conversion / relative stability [2]: more stable form over the temperature range of 5-35 °C

- physical state in solubility study ([4]; temperatures above 40° C.): transforms to an oil
SMILES: O=C(O)CCCC=CCC1C(O)CC(O)C1C=CC(O)CCc1ccccc1 (centres unmarked) [bimatoprost acid, 7-[3,5-Dihydroxy-2-(3-hydroxy-5-phenyl-pent-1-enyl)-cyclopentyl]-hept-5-enoic acid]
